Test results published in patent US6797819B1, “Alkaloids” (President and Fellows of Harvard College, priority 1998, dated 2004).
“Also recorded” adds a separate entry of the source.

Test system: VSVG-GFP trafficking in BSC1 cells
Format: cell-based, monkey

SMILES	effect on the secretory pathway	ability to block protein trafficking from the golgi apparatus to the plasma membrane	inhibition of VSVG-GFP movement from the golgi apparatus to the plasma membrane	inhibition of the movement of a specific cellular protein from the golgi apparatus to the plasma membrane
COc1ccc2c3c1O[C@H]1C[C@@H](O)C=C[C@@]31CCN(C)C2 [galanthamine, reference compound]	no observable effect on the secretory pathway	–	–	–
COc1ccc(CS[C@@H]2CC(=NOCc3ccccc3)C[C@H]3Oc4c(Br)c(OCC5CC5)cc5c4[C@]32C[C@@H](CO)NC5)cc1 [secramine]	–	block protein trafficking from the golgi apparatus to the plasma membrane	potent inhibitor of VSVG-GFP movement from the golgi apparatus to the plasma membrane; also recorded: Golgi to PM Blocker	potent inhibitor of the movement of a specific cellular protein from the golgi apparatus to the plasma membrane
